Data taken from US8278072B1, “Method for synthesis of sialylated products using reversible sialylation” (Health Research, Inc., priority 2007, dated 2012).

Tests used:
Format in all cases: biochemical
ST3Gal-II [1] = target: T1, ST3Gal-II (Rattus norvegicus, UniProt Q11205); experiment: Effect of O-glycans with sialyl or sulfo substituents on reverse sialylation from [9-3H] sialyl fetuin; details: 6.0 mM compound, [9-3H] sialyl fetuin donor, 20 mM 5′-CMP, 20 h
T1 construct: purchased Calbiochem
T1 sequence (Q11205 1-350): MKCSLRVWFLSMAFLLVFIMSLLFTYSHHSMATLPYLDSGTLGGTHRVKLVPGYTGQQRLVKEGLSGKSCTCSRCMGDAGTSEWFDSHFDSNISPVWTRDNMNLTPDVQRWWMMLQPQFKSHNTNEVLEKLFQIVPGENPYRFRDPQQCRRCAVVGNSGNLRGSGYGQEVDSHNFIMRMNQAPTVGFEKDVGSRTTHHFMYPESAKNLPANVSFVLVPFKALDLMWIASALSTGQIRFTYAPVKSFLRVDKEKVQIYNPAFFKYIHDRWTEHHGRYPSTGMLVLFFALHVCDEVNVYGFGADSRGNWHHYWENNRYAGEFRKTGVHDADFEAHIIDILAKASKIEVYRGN
Method: FIG. 6. Effect of sialyl or sulfo substituents in O-glycan chain on the reverse sialylation by ST3Gal-II. Incubation mixtures (600 μl) contained [9-^3H] sialyl fetuin (5 mg), 200 mM NaCa Codylate pH 6.0, 20 mM 5′-CMP, […] ST3Gal-II and the following: a. 6.0 mM NeuAcα2,3Galβ1,4GlcNAcβ1,6 (Galβ1,3)GalNAcα-O-Bn, b. 6.0 mM 3-O-SulfoGalβ1,4GlcNAcβ1,6(Galβ1,3)GalNAcα-O-Bn or c. 6.0 mM Galβ1,6GlcNAcβ1,6(3-O-Sulphoβ1,3Gal)GalNAcα-O-Bn along with 50 mU ST3Gal-III. Products were fractionated using Biogel P2 column after 20 h at 37° C. Unused [9-^3H] sialyl fetuin (peak 1) appears prior to [9-^3H]Sialyl product from acceptor (peak 2) and CMP-[9-^3H]NeuAc (peak 3). Product identities were verified using LC-MS as indicated by molecular weights noted in the panels.
For these studies, [9-^3H] sialyl fetuin was prepared by the action of ST3Gal-II on fetuin in the presence of CMP-[9-^3H]NeuAc. Radioactivity incorporation into the O-glycan chain of the glycoprotein was confirmed by treating the labeled molecule with alkaline borohyrdride (1MNaBH4 in 0.1MNaOH at 45° C. for 24 hours) and detecting the released radioactivity. During these studies, sialyl fetuin was incubated with 5′-CMP, one of the above mentioned compounds, and sialyltransferase for 20 hours, and the product formed was eluted using a Biogel P2 column. […] Consequently no radioactivity was associated with the acceptor. […] The use of distinct compounds to differentially alter reverse and forward sialylation function further supports the concept that ST3Gal-II may have more than one catalytic function.

ST3Gal-II [2] = target: T1, ST3Gal-II; experiment: Reverse sialylation equilibrium constant (Keq) and 5′-CMP dose dependence; details: for Keq (dimensionless units), reverse sialylation equilibrium constant: acceptor 5′-CMP
Method: FIG. 2. Equilibrium constant. a. Reversible sialyltransferase activity at increasing concentration of 5′-CMP. 0.15 mM of donor [9-^3H]NeuAcα2,3Galβ1,3(4-FGlcNAcβ1,6)GalNAcα-O-Bn [9-^3H[2]] was incubated with varying concentrations of 5′-CMP and 0.15 mU ST3Gal-II under conditions described in FIG. 1 for 2 hours. The consumption of the [9-^3H]NeuAc benzyl glycoside donor was measured by subjecting the incubation mixture to Sep-Pak C18 fractionation, which binds the donor and not CMP-[9-^3H]NeuAc. The reaction proceeded to ½ the maximum extent at 80 μM 5′-CMP. b. Equilibrium constant Keq (=0.35) calculated for data in panel a. c. Varying concentrations of 5′-CMP was sialylated with ST3Gal-II (2.0 mU) using either 0.15 mM (panel c) or 1.5 mM (not shown) sialyl donor [9-^3H]NeuAcα2,3Galβ1,3GalNAcβ1,3Galα-O-Me [9-^3H[3]] for 4 hours. The product CMP-[9-^3H]NeuAc and the unused [9-^3H[3]] were separated and quantitated by Dowex-1-Formate method. d. Equilibrium constant, Keq=98.9. Diamonds denote data from 1.5 mM runs while data from 0.15 mM runs are depicted by squares.
a) Biogel P2 chromatography: A Biogel P2 column (Fine Mesh; 1.0×116.0 cm) was used with 0.1 M pyridine acetate (pH5.4) as the eluent at room temperature. […] Fractions of 1.0 ml were collected. The bound material was then eluted with 0.5M GlcNAc or 0.2M Gal in the same buffer. […] Calculation of equilibrium constant, Keq: Equilibrium constant was calculated for selected reversible bimolecular reactions that are denoted by:
[formula] Here, [9-^3H]D* denotes the radiolabeled donor and D′ is the donor after removal of sialic acid. Similarly, A and [9-^3H]A* denote the acceptor before and after incorporation of NeuAc. In each run, unreacted [9-^3H]D* and product [9-^3H] A* are measured using radioactivity measurements. The equilibrium constant (Keq=kreverse/kforward, dimensionless units) are then determined using the following equation, where terms in square brackets denote concentrations:
[formula] [D0] and [A0] are initial donor and acceptor concentrations. A plot of [D*]/([D0]−[D*]) versus [A*]/([A0]−[A*]) yields Keq from slope data. Keq<1 implies that the forward reaction is favored and the reaction proceeds to the right side to form [9-^3H]A* efficiently. Liquid Chromatography Coupled with Tandem Mass Spectrometry (LC/MS/MS)
Similar results were observed upon increasing concentrations of 5′-CMP when [9-^3H]NeuAcα2,3Galβ1,3(4-FGlcNAcβ1,6) GalNAcα-O-Bn [9-^3H[2]] was donor (FIG. 2a, b). The concentration of 5′-CMP that mediated half-maximal transfer of [9-^3H]NeuAc was 80 μM. The bimolecular equilibrium constant (Keq) for this reaction was 0.35 (dimensionless units, Table I). Indeed, the Keq varied depending on the donor and it was 98.9 when the donor was based on the globo glycolipid, [9-^3H]NeuAcα2,3Galβ1,3GalNAcβ1,3 Gala-O-Me [[9-^3H] [3]] (FIG. 2c, d). Upon comparing and [3], it is apparent that reverse sialylation proceeds more effectively in the case of [2]. To further confirm the above estimates of Keq for core-2 based structures, we also calculated this parameter for our previously published data where [9-^3H]CMP-NeuAc was donor and mucin core-2 tetrasaccharide Galβ1,4GlcNAcβ1,6(Galβ1,3)GalNAcα-O-Bn was acceptor. In this case, Keq measured with respect to the rate of mucin core-2 sialylation was 5.55 (data not shown), which translates to a reverse sialylation Keq of 0.18.

ST3Gal-II [3] = target: T1, ST3Gal-II; experiment: Serial transfer of sialic acid from donor via 5′-CMP to acceptors (scheme-II)
Method: FIG. 3. Serial transfer of sialic acid using scheme-II was followed at increasing concentrations of acceptor D-Fucβ1,3GalNAcα-O-Bn. The donor used was either: i) 0.15 mM [9-^3H]CMP-NeuAc; or, ii) 0.15 mM [9-^3H]NeuAcα2,3Galβ1,3(4-FGlcNAcβ1,6)GalNAcα-O-Bn [9-^3H [2]] in the presence of 2.0 mM 5′-CMP, or iii) [9-^3H]NeuAcα2,3Galβ1,3(6-O-SulfoGlcNAcβ1,6)GalNAcα-O—Al [[9-^3H] [4]] in the presence of 2.0 mM 5′-CMP. In runs where [9-^3H [2]] was donor since both and [2] bind C18 cartridges, control runs were performed in the absence of D-Fucβ1,3GalNAcα-O-Bn to estimate the amount of [9-^3H]CMP-NeuAc formed under the experimental conditions. 80-85% of the radioactivity was transferred to CMP-NeuAc in these runs. The amount of CMP-NeuAc remaining in runs with was then subtracted from CMP-NeuAc radioactivity in the control run to determine the amount of sialylated. To complement this run, studies were also performed with [[9-^3H] […] In these runs, the amount of sialylated was determined by measuring radioactivity retained in the C18-cartridge. a. Equilibrium constant was 5.55 when CMP-[9-^3H]NeuAc was donor. b. ˜10-fold lower acceptor concentration was required for similar extents of reaction when CMP-[9-^3H]NeuAc was donor, compared to core-2 based donors and [4].
We tested the possibility that CMP-NeuAc formed above may be available for transfer to other acceptors using ST3Gal-II (scheme-II, FIG. 3). For this, three radiolabeled donors were prepared using methods described above: two were based on the mucin Core-2 structure ([[9-^3H] [1]] and [9-^3H]NeuAcα2,3Galβ1,3(6-O-SulfoGlcNAcβ1,6)GalNAcα-O—Al [[9-^3H] [4]]) while the third was based on the Globo glycolipid ([9-^3H] [3]). The transfer of [9-^3H]NeuAc from these sialylated donors to various T-hapten (Galβ1,3GalNAcα) and mucin core2-based glycoside acceptors in the presence of 5′-CMP and ST3Gal-II was assessed (Table III). All three […] of ST3Gal-II ([1], [3] and [4]) allowed formation of CMP-[9-^3H]NeuAc, and a diverse array of products.
The transfer of [9-^3H]NeuAc from [[9-^3H][1]] to D-Fucβ1,3GalNAcα-O-Bn in the presence of 5′-CMP and ST3Gal-II increased linearly in the first two hours and it reached saturation at 4 hours (FIG. 12), and thus the data in Table III (4 hours time point) represent equilibrium conditions. […] Further, diverse sialylated products can be formed using the same synthetic sialylated donor.
In order to compare the efficiency of individual reactions of scheme II, independent runs were performed where either 0.15 mM [9-^3H]CMP-NeuAc, 0.15 mM [9-^3H] [2] or 0.15 mM [9-^3H] [4] was the donor, and [5] was the acceptor (FIG. 3). 2 mM 5′-CMP was added in runs with core-2 donors and [4], and thus reverse sialylation of these molecules was feasible. Keq for transfer of sialic acid from CMP-NeuAc to [5] was 5.55 (FIG. 3a). […] (˜6 mM) or [9-^3H[4]] (˜6 mM). Thus, while the two-step mechanism results in lower conversion than CMP-NeuAc alone, the transfer of NeuAc still takes place at an appreciable rate.

CC(=O)N[C@H]1[C@H](OC[C@H]2O[C@H](OCc3ccccc3)[C@H](NC(C)=O)[C@@H](O[C@@H]3O[C@H](CO)[C@H](O)[C@H](O)[C@H]3O)[C@H]2O)O[C@H](CO)[C@@H](O[C@@H]2O[C@H](CO)[C@H](O)[C@H](OS(=O)(=O)O)[C@H]2O)[C@@H]1O [3-O-SulfoGalβ1,4GlcNAcβ1,6(Galβ1,3)GalNAcα-O-Bn]
Effect on reverse sialylation (CMP-NeuAc formation and product formation) (ST3Gal-II [1]): inhibits formation of the intermediate CMP-NeuAc

CC(=O)N[C@H]1[C@H](OC[C@H]2O[C@H](OCc3ccccc3)[C@H](NC(C)=O)[C@@H](O[C@@H]3O[C@H](CO)[C@H](O)[C@H](OS(=O)(=O)O)[C@H]3O)[C@H]2O)O[C@H](CO)[C@@H](O[C@@H]2O[C@H](CO)[C@H](O)[C@H](O)[C@H]2O)[C@@H]1O [Galβ1,4GlcNAcβ1,6(3-O-SulfoGalβ1,3)GalNAcα-O-Bn]
Effect on reverse sialylation (CMP-NeuAc formation and product formation) (ST3Gal-II [1]): permits both the formation of CMP-NeuAc from 5′-CMP

CC(=O)N[C@H]1[C@H](OC[C@H]2O[C@H](OCc3ccccc3)[C@H](NC(C)=O)[C@@H](O[C@@H]3O[C@H](CO)[C@H](O)[C@H](O)[C@H]3O)[C@H]2O)O[C@H](CO)[C@@H](O[C@@H]2O[C@H](CO)[C@H](O)[C@H](O)[C@H]2O)[C@@H]1O [[10], Galβ1,4GlcNAcβ1,6(Galβ1,3)GalNAcα-O-Bn]
Keq measured with respect to the rate of mucin core-2 sialylation (ST3Gal-II [2]; [9-3H]CMP-NeuAc donor, mucin core-2 tetrasaccharide acceptor, calculated for previously published data): 5.55 | Keq (dimensionless units), reverse sialylation equilibrium constant (ST3Gal-II [2]; translated from Keq 5.55 of mucin core-2 sialylation, previously published data): 0.18 | Incorporation of [9-3H]NeuAc from donor [1], percent of the CPM incorporated into [5] (ST3Gal-II [3]; acceptor 2.5 mM, 150 μM donor [1], 1 mM 5′-CMP, 4 hours): 20.5% | Incorporation of [9-3H]NeuAc from donor [4], percent of the CPM incorporated into [5] (ST3Gal-II [3]; acceptor 2.5 mM, 150 μM donor [4], 1 mM 5′-CMP, 4 hours): 8.4%

NeuAcα2,3Galβ1,4GlcNAcβ1,6(Galβ1,3)GalNAcα-O-Bn
Effect on reverse sialylation (CMP-NeuAc formation and product formation) (ST3Gal-II [1]): prevents product formation without inhibiting CMP-NeuAc formation

[9-^3H]NeuAcα2,3Galβ1,3(4-FGlcNAcβ1,6)GalNAcα-O-Bn [[2]]
Keq (dimensionless units), reverse sialylation equilibrium constant (ST3Gal-II [2]; sialylated donor): 0.35 | amount of acceptor [5] required for comparable transfer (ST3Gal-II [3]; 0.15 mM donor, 2 mM 5′-CMP with core-2 donors): ~6 mM | radioactivity transferred to CMP-NeuAc (ST3Gal-II [3]; control runs without acceptor [5], 2.0 mM 5′-CMP): 80-85%
